Data on one compound can be found in article PMC5218480 (PLoS ONE, 2017).

This experiment concerns MV-4-11 cells. The experiment in a line: Gene expression microarray analysis (Affymetrix PrimeView) and GSEA. The class given is cell-based, human. Also noted: RFU PODN (11730768_x_at) / Fold change /veh PODN (11730768_x_at) / RFU LINC00158 (11744669_a_at) / Fold change /veh LINC00158 (11744669_a_at) / RFU DUSP10 (11751237_a_at) / Fold change /veh DUSP10 (11751237_a_at) / RFU ID3 (11757404_x_at) / Fold change /veh ID3 (11757404_x_at) / RFU PLEKHG5 (11737974_s_at) / Fold change /veh PLEKHG5 (11737974_s_at) / RFU LRRC4B (11730491_at) / Fold change /veh LRRC4B (11730491_at) / RFU GIMAP4 (11747438_a_at) / Fold change /veh GIMAP4 (11747438_a_at) / RFU KRT8 (11758183_x_at) / Fold change /veh KRT8 (11758183_x_at) / RFU CNN1 (11734310_a_at) / Fold change /veh CNN1 (11734310_a_at) / RFU VPS37D (11726825_at) / Fold change /veh VPS37D (11726825_at) / RFU C10orf10 (11716522_x_at) / Fold change /veh C10orf10 (11716522_x_at) / RFU KIR2DL2 /// KIR2DL4 /// KIR2DL5A /// KIR2DL5B /// KIR2DS1 /// KIR2DS2 /// KIR2DS3 /// KIR2DS4 /// KIR3DL3 /// KIR3DL3 /// KIR3DS1 (11738374_at) / Fold change /veh KIR2DL2 /// KIR2DL4 /// KIR2DL5A /// KIR2DL5B /// KIR2DS1 /// KIR2DS2 /// KIR2DS3 /// KIR2DS4 /// KIR3DL3 /// KIR3DL3 /// KIR3DS1 (11738374_at) / RFU C1QL1 (11718748_at) / Fold change /veh C1QL1 (11718748_at) / RFU TMPRSS4 (11747572_a_at) / Fold change /veh TMPRSS4 (11747572_a_at) / RFU HAMP (11756126_x_at) / Fold change /veh HAMP (11756126_x_at) / RFU RNFT2 (11725882_a_at) / Fold change /veh RNFT2 (11725882_a_at) / RFU NR4A2 (11747474_a_at) / Fold change /veh NR4A2 (11747474_a_at) / RFU ABCC12 (11746883_a_at) / Fold change /veh ABCC12 (11746883_a_at) / RFU TMEM136 (11760407_x_at) / Fold change /veh TMEM136 (11760407_x_at) / RFU CLDN22 /// WWC2 (11732394_at) / Fold change /veh CLDN22 /// WWC2 (11732394_at) / RFU HLA-DPB1 (11760878_x_at) / Fold change /veh HLA-DPB1 (11760878_x_at) / RFU SPINT1 (11716480_a_at) / Fold change /veh SPINT1 (11716480_a_at) / RFU GAP43 (11754022_s_at) / Fold change /veh GAP43 (11754022_s_at) / RFU A4GNT (11735810_at) / Fold change /veh A4GNT (11735810_at) / RFU PRB3 (11715151_x_at) / Fold change /veh PRB3 (11715151_x_at) / RFU TUBB4B (11761932_at) / Fold change /veh TUBB4B (11761932_at) / RFU CAPN14 (11732068_a_at) / Fold change /veh CAPN14 (11732068_a_at) / RFU TMCC2 (11721928_a_at) / Fold change /veh TMCC2 (11721928_a_at) / RFU IRGQ (11745062_a_at) / Fold change /veh IRGQ (11745062_a_at) / RFU FAM174B (11720279_a_at) / Fold change /veh FAM174B (11720279_a_at) / RFU TMPRSS4 (11748680_a_at) / Fold change /veh TMPRSS4 (11748680_a_at) / RFU FAM212B (11763350_a_at) / Fold change /veh FAM212B (11763350_a_at) / RFU PLEKHG5 (11743358_a_at) / Fold change /veh PLEKHG5 (11743358_a_at) / RFU ZSCAN30 (11745921_a_at) / Fold change /veh ZSCAN30 (11745921_a_at) / RFU CMKLR1 (11741424_a_at) / Fold change /veh CMKLR1 (11741424_a_at) / RFU LOC101060620 /// MAPK8IP1 (11723275_at) / Fold change /veh LOC101060620 /// MAPK8IP1 (11723275_at) / RFU SPTSSB (11747773_x_at) / Fold change /veh SPTSSB (11747773_x_at) / RFU PRSS12 (11739890_at) / Fold change /veh PRSS12 (11739890_at) / RFU BIN1 (11741810_x_at) / Fold change /veh BIN1 (11741810_x_at) / RFU WNT11 (11732464_a_at) / Fold change /veh WNT11 (11732464_a_at) / RFU C10orf10 (11716521_a_at) / Fold change /veh C10orf10 (11716521_a_at) / RFU C5orf56 (11738089_at) / Fold change /veh C5orf56 (11738089_at) / RFU CYB561 (11721691_x_at) / Fold change /veh CYB561 (11721691_x_at) / RFU ANKRD19P (11752326_a_at) / Fold change /veh ANKRD19P (11752326_a_at) / RFU OR2T12 /// OR2T33 /// OR2T8 (11738714_s_at) / Fold change /veh OR2T12 /// OR2T33 /// OR2T8 (11738714_s_at) / RFU VCAN (11748164_a_at) / Fold change /veh VCAN (11748164_a_at) / RFU JSRP1 (11732532_at) / Fold change /veh JSRP1 (11732532_at) / RFU KRTAP10-11 (11738290_x_at) / Fold change /veh KRTAP10-11 (11738290_x_at) / RFU MYO3A (11730013_a_at) / Fold change /veh MYO3A (11730013_a_at) / RFU EBF3 (11725865_a_at) / Fold change /veh EBF3 (11725865_a_at) / RFU CAMK2N1 (11719241_x_at) / Fold change /veh CAMK2N1 (11719241_x_at) / RFU C5orf56 (11738088_a_at) / Fold change /veh C5orf56 (11738088_a_at) / RFU OLFML3 (11715873_a_at) / Fold change /veh OLFML3 (11715873_a_at) / RFU LOC100653217 /// NTM (11731650_a_at) / Fold change /veh LOC100653217 /// NTM (11731650_a_at) / RFU MAPK11 (11762145_a_at) / Fold change /veh MAPK11 (11762145_a_at) / RFU FIZ1 (11724087_x_at) / Fold change /veh FIZ1 (11724087_x_at) / RFU OASL (11726364_x_at) / Fold change /veh OASL (11726364_x_at) / RFU SOX15 (11748057_x_at) / Fold change /veh SOX15 (11748057_x_at) / RFU CD79A (11719716_a_at) / Fold change /veh CD79A (11719716_a_at) / RFU HIST1H1D (11736915_at) / Fold change /veh HIST1H1D (11736915_at) / RFU CASKIN2 (11723855_a_at) / Fold change /veh CASKIN2 (11723855_a_at) / RFU LOC730098 (11760151_x_at) / Fold change /veh LOC730098 (11760151_x_at) / RFU OR4N2 (11742367_at) / Fold change /veh OR4N2 (11742367_at) / RFU PRRT2 (11749266_a_at) / Fold change /veh PRRT2 (11749266_a_at) / RFU SNX32 (11753110_a_at) / Fold change /veh SNX32 (11753110_a_at) / RFU CDHR5 (11726645_a_at) / Fold change /veh CDHR5 (11726645_a_at) / RFU RCAN1 (11760418_a_at) / Fold change /veh RCAN1 (11760418_a_at) / RFU FAM167A (11723789_a_at) / Fold change /veh FAM167A (11723789_a_at) / RFU FAM26E (11764081_at) / Fold change /veh FAM26E (11764081_at) / RFU ISYNA1 (11749810_s_at) / Fold change /veh ISYNA1 (11749810_s_at) / RFU ACY1 (11761880_at) / Fold change /veh ACY1 (11761880_at) / RFU 11764098_at / Fold change /veh 11764098_at / RFU SAMD14 (11745864_x_at) / Fold change /veh SAMD14 (11745864_x_at) / RFU NPB (11741838_a_at) / Fold change /veh NPB (11741838_a_at) / RFU TMPRSS6 (11731388_a_at) / Fold change /veh TMPRSS6 (11731388_a_at) / RFU KRTAP10-2 (11738614_at) / Fold change /veh KRTAP10-2 (11738614_at) / RFU ARHGAP8 /// PRR5-ARHGAP8 (11727945_x_at) / Fold change /veh ARHGAP8 /// PRR5-ARHGAP8 (11727945_x_at) / RFU KRTAP5-7 /// NADSYN1 (11734609_at) / Fold change /veh KRTAP5-7 /// NADSYN1 (11734609_at) / RFU RASL12 (11751679_a_at) / Fold change /veh RASL12 (11751679_a_at) / RFU CDKN2B (11736163_a_at) / Fold change /veh CDKN2B (11736163_a_at) / RFU PRF1 (11729649_at) / Fold change /veh PRF1 (11729649_at) / RFU, ZNF638 /// ZNF638-IT1 / Fold change vs veh, ZNF638 /// ZNF638-IT1 / RFU, PANK3 / Fold change vs veh, PANK3 / RFU, SH3YL1 / Fold change vs veh, SH3YL1 / RFU, ZEB2 / Fold change vs veh, ZEB2 / RFU, NRIP1 / Fold change vs veh, NRIP1 / RFU, PTTG1IP / Fold change vs veh, PTTG1IP / RFU, CAPN2 / Fold change vs veh, CAPN2 / RFU, MED14 / Fold change vs veh, MED14 / RFU, SNORA58 / Fold change vs veh, SNORA58 / RFU, C1orf63 / Fold change vs veh, C1orf63 / RFU, LRRFIP1 / Fold change vs veh, LRRFIP1 / RFU, NDUFAF7 / Fold change vs veh, NDUFAF7 / RFU, SLC12A2 / Fold change vs veh, SLC12A2 / RFU, IBTK / Fold change vs veh, IBTK / RFU, ESF1 / Fold change vs veh, ESF1 / Fold change vs veh, TMEM50B / RFU, TAOK1 / Fold change vs veh, TAOK1 / RFU, ACBD3 / Fold change vs veh, ACBD3 / RFU, TMA16 / Fold change vs veh, TMA16 / RFU, RWDD3 / Fold change vs veh, RWDD3 / RFU, BCAT1 / Fold change vs veh, BCAT1 / RFU, EDEM3 / Fold change vs veh, EDEM3 / RFU, TMEM33 / Fold change vs veh, TMEM33 / RFU, WDR75 / Fold change vs veh, WDR75 / RFU, AHCTF1 / Fold change vs veh, AHCTF1 / RFU, TFRC / Fold change vs veh, TFRC / RFU, ZDHHC17 / Fold change vs veh, ZDHHC17 / RFU, NOM1 / Fold change vs veh, NOM1 / RFU, ARL8B / Fold change vs veh, ARL8B / RFU, ZBTB11 / Fold change vs veh, ZBTB11 / RFU, TAMM41 / Fold change vs veh, TAMM41 / RFU, KIAA1704 /// LOC100996395 / Fold change vs veh, KIAA1704 /// LOC100996395 / RFU, ING1 / Fold change vs veh, ING1 / RFU, TRMT61B / Fold change vs veh, TRMT61B / RFU, FUBP3 / Fold change vs veh, FUBP3 / RFU, TP53 / Fold change vs veh, TP53 / RFU, TNKS2 / Fold change vs veh, TNKS2 / RFU, ZFP14 / Fold change vs veh, ZFP14 / RFU, ACTR2 / Fold change vs veh, ACTR2 / RFU, PPP3R1 / Fold change vs veh, PPP3R1 / RFU, PIK3R1 / Fold change vs veh, PIK3R1 / RFU, HNRNPA1 / Fold change vs veh, HNRNPA1 / RFU, RNF170 / Fold change vs veh, RNF170 / RFU, ZNF28 / Fold change vs veh, ZNF28 / RFU, RNGTT / Fold change vs veh, RNGTT / RFU, OGT / Fold change vs veh, OGT / RFU, BRD1 / Fold change vs veh, BRD1 / RFU, MARS / Fold change vs veh, MARS / RFU, ZNF655 / Fold change vs veh, ZNF655 / RFU, FAHD1 / Fold change vs veh, FAHD1 / RFU, BDP1 / Fold change vs veh, BDP1 / RFU, LRRCC1 / Fold change vs veh, LRRCC1 / RFU, ARID1A / Fold change vs veh, ARID1A / RFU, ZNF146 / Fold change vs veh, ZNF146 / RFU, ZNF330 / Fold change vs veh, ZNF330 / RFU, GPN3 / Fold change vs veh, GPN3 / RFU, C9orf123 / Fold change vs veh, C9orf123 / RFU, N4BP2L2 / Fold change vs veh, N4BP2L2 / RFU, ARFIP1 / Fold change vs veh, ARFIP1 / RFU, FAM179B / Fold change vs veh, FAM179B / RFU, BCL10 / Fold change vs veh, BCL10 / RFU, UHRF1BP1L / Fold change vs veh, UHRF1BP1L / RFU, BET1 / Fold change vs veh, BET1 / RFU, CNOT2 / Fold change vs veh, CNOT2 / RFU, ZNF268 / Fold change vs veh, ZNF268 / Fold change vs veh, ZNF507 / RFU, DGCR2 / Fold change vs veh, DGCR2 / RFU, WDSUB1 / Fold change vs veh, WDSUB1 / Fold change vs veh, HSP90B1 /// MIR3652 / RFU, ADSS / Fold change vs veh, ADSS / RFU, GK / Fold change vs veh, GK / RFU, ZNF148 / Fold change vs veh, ZNF148 / RFU, TAF9 / Fold change vs veh, TAF9 / RFU, SLC1A5 / Fold change vs veh, SLC1A5 / RFU, SLMO2 / Fold change vs veh, SLMO2 / RFU, ABCC4 / Fold change vs veh, ABCC4 / RFU, LOC101060439 /// RAP1B / Fold change vs veh, LOC101060439 /// RAP1B / RFU, RFX7 / Fold change vs veh, RFX7 / RFU, GTPBP10 / Fold change vs veh, GTPBP10 / RFU, CNEP1R1 / Fold change vs veh, CNEP1R1 / RFU, BIVM-ERCC5 /// ERCC5 / Fold change vs veh, BIVM-ERCC5 /// ERCC5 / RFU, ILF3 / Fold change vs veh, ILF3 / RFU 11762660_at / Fold change /veh 11762660_at / RFU VCAN (11757783_s_at) / Fold change /veh VCAN (11757783_s_at) / RFU DDX43 (11728927_at) / Fold change /veh DDX43 (11728927_at) / RFU KRT8 (11758188_x_at) / Fold change /veh KRT8 (11758188_x_at) / RFU NKD1 (11759106_at) / Fold change /veh NKD1 (11759106_at) / RFU SRD5A1 (11742802_a_at) / Fold change /veh SRD5A1 (11742802_a_at) / RFU TPSAB1 /// TPSB2 (11721975_s_at) / Fold change /veh TPSAB1 /// TPSB2 (11721975_s_at) / RFU GSTM3 (11746129_a_at) / Fold change /veh GSTM3 (11746129_a_at) / RFU IL23R (11737362_x_at) / Fold change /veh IL23R (11737362_x_at) / RFU TMEM51 (11727254_a_at) / Fold change /veh TMEM51 (11727254_a_at) / RFU PIWIL2 (11732686_x_at) / Fold change /veh PIWIL2 (11732686_x_at) / RFU ORM1 (11744905_x_at) / Fold change /veh ORM1 (11744905_x_at) / RFU CCDC152 (11743942_at) / Fold change /veh CCDC152 (11743942_at) / RFU ECM1 (11717891_a_at) / Fold change /veh ECM1 (11717891_a_at) / RFU IL23R (11748794_a_at) / Fold change /veh IL23R (11748794_a_at) / RFU TNFAIP8L3 (11732012_x_at) / Fold change /veh TNFAIP8L3 (11732012_x_at) / RFU MBOAT4 (11741988_at) / Fold change /veh MBOAT4 (11741988_at) / RFU 11764193_at / Fold change /veh 11764193_at / RFU TMEM53 (11763286_at) / Fold change /veh TMEM53 (11763286_at) / RFU MAGEB2 (11727129_at) / Fold change /veh MAGEB2 (11727129_at) / RFU TMEM200A (11744735_a_at) / Fold change /veh TMEM200A (11744735_a_at) / RFU CCDC152 (11751479_a_at) / Fold change /veh CCDC152 (11751479_a_at) / RFU FAM211A (11726209_a_at) / Fold change /veh FAM211A (11726209_a_at) / RFU RGS16 (11746705_a_at) / Fold change /veh RGS16 (11746705_a_at) / RFU VCAN (11755009_s_at) / Fold change /veh VCAN (11755009_s_at) / RFU RHOB (11743442_s_at) / Fold change /veh RHOB (11743442_s_at) / RFU RGS16 (11720943_a_at) / Fold change /veh RGS16 (11720943_a_at) / RFU RGS16 (11720944_at) / Fold change /veh RGS16 (11720944_at) / RFU, VPS4B / Fold change vs veh, VPS4B / RFU, CREB1 / Fold change vs veh, CREB1 / RFU, DNAJC13 / Fold change vs veh, DNAJC13 / RFU, GNAQ / Fold change vs veh, GNAQ / RFU, CDK5R1 / Fold change vs veh, CDK5R1 / RFU, ZRANB3 / Fold change vs veh, ZRANB3 / RFU, CUL4A / Fold change vs veh, CUL4A / RFU, CCNY / Fold change vs veh, CCNY / RFU, UFL1 / Fold change vs veh, UFL1 / RFU, COG3 / Fold change vs veh, COG3 / RFU, DIAPH2 / Fold change vs veh, DIAPH2 / RFU, SKA2 / Fold change vs veh, SKA2 / RFU, AFF3 / Fold change vs veh, AFF3 / RFU, LMF1 / Fold change vs veh, LMF1 / RFU, IPO11 / Fold change vs veh, IPO11 / RFU, DFFB / Fold change vs veh, DFFB / RFU, FOXP1 / Fold change vs veh, FOXP1 / RFU, CARD8 / Fold change vs veh, CARD8 / RFU, STRN3 / Fold change vs veh, STRN3 / RFU, ADK / Fold change vs veh, ADK / RFU, RASSF2 / Fold change vs veh, RASSF2 / RFU, WIPF1 / Fold change vs veh, WIPF1 / RFU, LARP1B / Fold change vs veh, LARP1B / RFU, RASA1 / Fold change vs veh, RASA1 / RFU, RB1 / Fold change vs veh, RB1 / RFU, PPFIA1 / Fold change vs veh, PPFIA1 / RFU, MAT2A / Fold change vs veh, MAT2A / RFU, CCT5 / Fold change vs veh, CCT5 / RFU, WDR92 / Fold change vs veh, WDR92 / RFU, CUX1 / Fold change vs veh, CUX1 / RFU, TTC7A / Fold change vs veh, TTC7A / RFU, TMEM135 / Fold change vs veh, TMEM135 / RFU, DEPTOR / Fold change vs veh, DEPTOR / RFU, CPM / Fold change vs veh, CPM / RFU, DNAJB6 / Fold change vs veh, DNAJB6 / RFU, CACNA2D3 / Fold change vs veh, CACNA2D3 / RFU, DTX4 / Fold change vs veh, DTX4 / RFU, TFCP2 / Fold change vs veh, TFCP2 / RFU, GMCL1 /// GMCL1P1 / Fold change vs veh, GMCL1 /// GMCL1P1 / RFU, AEBP2 / Fold change vs veh, AEBP2 / RFU, SNHG1 /// SNORD22 /// SNORD25 /// SNORD26 /// SNORD27 /// SNORD28 /// SNORD29 /// SNORD31 / Fold change vs veh, SNHG1 /// SNORD22 /// SNORD25 /// SNORD26 /// SNORD27 /// SNORD28 /// SNORD29 /// SNORD31 / Fold change (Aza/veh), C12orf56 (ProbeSet 11735607_a_at) / Fold change (ACY-1035/veh), C12orf56 (ProbeSet 11735607_a_at) / Fold change (Aza/veh), FGFR1OP (ProbeSet 11751329_s_at) / Fold change (ACY-1035/veh), FGFR1OP (ProbeSet 11751329_s_at) / Fold change (Aza/veh), VPS36 (ProbeSet 11739960_a_at) / Fold change (ACY-1035/veh), VPS36 (ProbeSet 11739960_a_at) / RFU SYPL1 (11715823_x_at) / Fold change /veh SYPL1 (11715823_x_at) / RFU IGFBP7 (11715501_s_at) / Fold change /veh IGFBP7 (11715501_s_at) / RFU REEP3 (11722064_at) / Fold change /veh REEP3 (11722064_at) / RFU IGLL1 (11728026_x_at) / Fold change /veh IGLL1 (11728026_x_at): dose or concentration left out as unconfirmed. The conditions noted are these: ProbeSet 11716999_a_at; LIST D.

The structures appear in SMILES notation.

For the compound `Nc1ncn([C@@H]2O[C@H](CO)[C@@H](O)[C@H]2O)c(=O)n1` [azacitidine], the “RFU, RASA1” value was 172.86 RFU.
